Here are results for 15 molecules from BindingDB's records for doi:10.1016/j.ejmech.2018.01.013 (University of Rennes 1, 2018).

This assay can be described thus: Inhibition of human 20S constitutive proteasome beta-1 using Z-LLE-betaNA as substrate incubated for 15 mins measured for 45 mins by fluorescence assay.

The IC50 is the concentration at which inhibition is half-maximal. Read a high IC50 as weaker potency in that assay. The molecule `C[C@@H](NC(=O)[C@H](Cc1ccc(OCc2ccccc2)cc1)NC(=O)OC(C)(C)C)C(=O)N[C@@H](C[C@]1(O)C(=O)Nc2ccccc21)C(=O)NCc1ccccc1` showed an IC50 of 17.1 µM.

With `CC(C)(C)OC(=O)N[C@@H](Cc1ccc(OCc2ccccc2)cc1)C(=O)N[C@@H](CC(N)=O)C(=O)N[C@@H](C[C@]1(O)C(=O)Nc2ccccc21)C(=O)NCc1ccccc1`, the IC50 came to 20.1 µM. The IC50 values of the last two molecules are within 1.5-fold of each other.

Turning to `C[C@H](NC(=O)[C@H](Cc1ccc(OCc2ccccc2)cc1)NC(=O)OC(C)(C)C)C(=O)N[C@@H](C[C@]1(O)C(=O)N(C)c2ccccc21)C(=O)NCc1ccccc1`, 11.4 µM corresponded to half-maximal inhibition (IC50).

`NCCCC[C@H](NC(=O)[C@@H](N)Cc1ccc(OCc2ccccc2)cc1)C(=O)N[C@@H](C[C@]1(O)C(=O)Nc2ccccc21)C(=O)NCc1ccccc1` showed an IC50 of 13 µM.

With `C[C@H](NC(=O)[C@H](Cc1ccc(OCc2ccccc2)cc1)NC(=O)OC(C)(C)C)C(=O)N[C@@H](C[C@]1(O)C(=O)Nc2ccccc21)C(=O)NCCc1ccccc1`, inhibition was half-maximal at 4.9 µM (IC50).

Turning to `C[C@H](NC(=O)[C@@H](N)Cc1ccc(OCc2ccccc2)cc1)C(=O)N[C@@H](C[C@]1(O)C(=O)Nc2ccccc21)C(=O)NCc1ccccc1`, the IC50 is 30 µM.

Consider `C[C@H](NC(=O)[C@H](Cc1ccc(OCc2ccccc2)cc1)NC(=O)OC(C)(C)C)C(=O)N[C@@H](C[C@]1(O)C(=O)Nc2ccccc21)C(=O)NCC(C)(C)C`, for which the midpoint of inhibition, the IC50, lay at 15.1 µM.

With `CC(O)[C@@H](NC(=O)c1ccc(OCc2ccccc2)cc1)C(=O)N[C@@H](C[C@]1(O)C(=O)Nc2ccccc21)C(=O)NCc1ccccc1` (stereo not given in full), the IC50 was found to be 31.9 µM.

The molecule `C[C@H](NC(=O)Cc1cccc(Oc2ccccc2)c1)C(=O)N[C@@H](C[C@]1(O)C(=O)Nc2ccccc21)C(=O)NCc1ccccc1` displayed an IC50 of 40 µM.

Molecule `C[C@H](NC(=O)[C@H](Cc1ccc(OCc2ccccc2)cc1)NC(=O)OC(C)(C)C)C(=O)N[C@@H](C[C@@]1(O)C(=O)Nc2ccccc21)C(=O)NCc1ccccc1` gave an IC50 of 17.2 µM.

In turn, `C[C@H](NC(=O)[C@H](Cc1ccc(OCc2ccccc2)cc1)NC(=O)OC(C)(C)C)C(=O)N[C@@H](C[C@]1(O)C(=O)Nc2ccccc21)C(=O)NC(c1ccccc1)c1ccccc1` came in with a 50% inhibitory concentration (IC50) of 2.2 µM.

`C[C@H](NC(=O)c1ccc(OCc2ccccc2)cc1)C(=O)N[C@@H](C[C@]1(O)C(=O)Nc2ccccc21)C(=O)NCc1ccccc1` came in with a concentration for half-maximal inhibition (IC50) of 35 µM.

Consider `C[C@H](NC(=O)[C@H](Cc1ccc(OCc2ccccc2)cc1)NC(=O)OC(C)(C)C)C(=O)N[C@@H](C[C@@]1(O)C(=O)N(C)c2ccccc21)C(=O)NCc1ccccc1`, for which the IC50 is 13.4 µM.

Molecule `C[C@H](NC(=O)[C@H](Cc1ccc(OCc2ccccc2)cc1)NC(=O)OC(C)(C)C)C(=O)N[C@@H](C[C@]1(O)C(=O)Nc2ccccc21)C(=O)NCc1cccc2ccccc12` gave an IC50 of 2.14 µM.

Consider `C[C@H](NC(=O)[C@H](Cc1ccc(OCc2ccccc2)cc1)NC(=O)OC(C)(C)C)C(=O)N[C@@H](C[C@]1(O)C(=O)Nc2ccccc21)C(=O)NCc1ccc(-c2ccccc2)cc1`, for which inhibition was half-maximal at 17.6 µM (IC50).
